{
  "source": "patent US8278040B2",
  "about": "“Optically responsive and mechanically tunable colloid-in-liquid crystal gels” (priority 2008, dated 2012)",
  "origin": "cited, not measured here",
  "tested_on": "live cells",
  "data": [
    {"smiles": "CCCCCc1ccc(-c2ccc(C#N)cc2)cc1", "note": "[5CB, 4-cyano-4′-pentylbiphenyl]", "values": [
      {"measurement": "toxicity to living cells (stated)", "setting": "general statement, criteria of Luk et al.", "result": "cytotoxic"},
      {"measurement": "cell death on direct contact with live cells", "setting": "placed into direct contact with live cells", "result": "cause cell death within a short time period"}
    ]}
  ]
}
